What was measured:
[1] = biological target: T1, slr2103 (Synechocystis sp. PCC 6803, UniProt P73931); assay: feeding of E. coli cells expressing slr2103, acyl-DPQ product by LC-MS/MS; format: cell-based; conditions: supplied as decylplastoquinone (1500 nmol in 5 ml), reduced in cells; acyl donor from E. coli; 30 C, 3 h
T1 construct: cloned in pQE-80L, expressed in E. coli; intact cells fed with substrate
T1 sequence (P73931 1-294): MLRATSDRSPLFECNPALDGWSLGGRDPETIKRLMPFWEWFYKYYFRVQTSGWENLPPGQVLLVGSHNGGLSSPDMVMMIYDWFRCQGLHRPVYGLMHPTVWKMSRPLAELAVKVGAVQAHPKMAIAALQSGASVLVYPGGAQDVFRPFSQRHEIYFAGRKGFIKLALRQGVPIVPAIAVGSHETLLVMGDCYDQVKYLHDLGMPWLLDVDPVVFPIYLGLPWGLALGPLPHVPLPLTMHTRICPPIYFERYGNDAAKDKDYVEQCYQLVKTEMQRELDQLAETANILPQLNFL

[2] = biological target: T2, A0918 (Picosynechococcus sp. PCC 7002, UniProt B1XIY0); assay: in vitro acyltransferase assay with E. coli microsomal membranes, TAG product by MS; format: biochemical; conditions: 50 uM palmitoyl-CoA, 200 uM substrate, 20 mM MgCl2, 0.1% CHAPS, pH 7.4, 37 C, 20 min
T2 construct: gene plsC; amplified from genomic DNA, cloned in pQE-80L, expressed in E. coli; microsomal membrane fraction
T2 sequence (B1XIY0 1-291): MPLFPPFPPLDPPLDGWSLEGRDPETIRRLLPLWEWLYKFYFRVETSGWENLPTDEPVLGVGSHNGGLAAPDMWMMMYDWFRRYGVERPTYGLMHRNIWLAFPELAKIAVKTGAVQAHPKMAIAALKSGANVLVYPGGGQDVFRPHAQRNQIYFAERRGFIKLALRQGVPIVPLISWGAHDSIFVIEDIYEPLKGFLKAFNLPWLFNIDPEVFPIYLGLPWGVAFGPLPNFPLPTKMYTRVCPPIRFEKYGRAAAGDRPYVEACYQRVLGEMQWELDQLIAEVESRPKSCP

[3] = biological target: T1, slr2103; assay: feeding of E. coli cells expressing slr2103, TAG product by MS; format: cell-based; conditions: 1500 nmol substrate in 5 ml; acyl donor from E. coli; 30 C, 3 h

| SMILES | feeding of E. coli cells expressing slr2103, acyl-DPQ product by LC-MS/MS [1] | in vitro acyltransferase assay with E. coli microsomal membranes, TAG product by [2] | feeding of E. coli cells expressing slr2103, TAG product by MS [3] |
| --- | --- | --- | --- |
| CCCCCCCCCCc1cc(O)c(C)c(C)c1O [DPQ, decylplastoquinol] | slr2103 is capable of acylating one of the quinol hydroxyl groups of DPQ | – | – |
| CCCCCCCC(=O)OCC(CO)OC(=O)CCCCCCC (stereo not drawn) [dioctanoin] | – | confirming that A0918 harbors acyltransferase activity for the synthesis of TAG and FAPE | Accumulation of TAG after supplementation of E. coli cells expressing slr2103 with dioctanoin |

— PMC12048435, “Multifunctional acyltransferases involved in the synthesis of triacylglycerol, fatty acid phytyl esters and plastoquinol esters in cyanobacteria” (Planta, 2025)
